Measurements published in patent publication US20190077795A1, “ARGININE […] INHIBITORS AND USES THEREOF” (Epizyme, Inc., priority 2014, published 2019).
Read-outs that look alike come from different tables or passages of the source.

Experiments:
[1] = system: mono-methyl arginine in RKO cells; assay: RKO Methylation Assay, In Cell Western (ICW); format: cell-based; conditions: 72 hours
Description: RKO adherent cells were purchased from ATCC (American Type Culture Collection), Manassas, Va., USA. DMEM/Glutamax medium, penicillin-streptomycin, heat inactivated fetal bovine serum, 0.05% trypsin and D-PBS were purchased from Life Technologies, Grand Island, N.Y., USA. Odyssey blocking buffer, 800CW goat anti-rabbit IgG (H+L) antibody, and Licor Odyssey infrared scanner were purchased from Licor Biosciences, Lincoln, Nebr., USA. Mono-methyl arginine antibody was purchased from Cell Signaling Technology, Danvers, Mass., USA. Methanol was purchased from VWR, Franklin, Mass., USA. 10% Tween 20 was purchased from KPL, Inc., Gaithersburg, Md., USA. DRAQ5 was purchased from Biostatus Limited, Leicestershire, UK.
RKO adherent cells were maintained in growth medium (DMEM/Glutamax medium supplemented with 10% v/v heat inactivated fetal bovine serum and 100 units/mL penicillin-streptomycin) and cultured at 37° C. under 5% CO2.
Cell treatment, In Cell Western (ICW) for detection of mono-methyl arginine and DNA content.
Compound (100 nL) from a 96-well source plate was added directly to 384 well cell plate. Plates were incubated at 37° C., 5% CO2 for 72 hours. After three days of incubation, plates were brought to room temperature outside of the incubator for ten minutes and blotted on paper towels to remove cell media. 50 μL of ice cold 100% methanol was added directly to each well and incubated for 30 min at room temperature. After 30 min, plates were transferred to a Biotek EL406 plate washer and washed 2 times with 100 μL per well of wash buffer (1×PBS). Next 60 μL per well of Odyssey blocking buffer (Odyssey Buffer with 0.1% Tween 20 (v/v)) were added to each plate and incubated 1 hour at room temperature. Blocking buffer was removed and 20 μL per well of primary antibody was added (mono-methyl arginine diluted 1:200 in Odyssey buffer with 0.1% Tween 20 (v/v)) and plates were incubated overnight (16 hours) at 4° C. Plates were washed 5 times with 100 μL per well of wash buffer. […] The plates were washed 5 times with 100 μL per well wash buffer then 2 times with 100 μL per well of water. Plates were allowed to dry at room temperature then imaged on the Licor Odyssey machine which measures integrated intensity at 700 nm and 800 nm wavelengths. Both 700 and 800 channels were scanned.
First, the ratio for each well was determined by:
Each plate included fourteen control wells of DMSO only treatment (minimum activation) as well as fourteen control wells for maximum activation treated with 20 μM of a reference compound. The average of the ratio values for each control type was calculated and used to determine the percent activation for each test well in the plate. Reference compound was serially diluted three-fold in DMSO for a total of nine test concentrations, beginning at 20 μM. Percent activation was determined and EC30 curves were generated using triplicate wells per concentration of compound.

[2] = target: T1, human PRMT6 (Homo sapiens, UniProt Q96LA8); assay: PRMT6 Biochemical Assay
T1 construct: Flag-PRMT6-His; made in house; host or cells: HEK 293F cells (BacMam baculovirus, pFastBacMam)
Description: (§1) S-adenosylmethionine (SAM), S-adenosylhomocysteine (SAH), bicine, Tween20, dimethylsulfoxide (DMSO), bovine skin gelatin (BSG), sodium butyrate and Tris(2-carboxyethyl)phosphine hydrochloride solution (TCEP) were purchased from Sigma-Aldrich at the highest level of purity possible. ^3H-SAM was purchase from American Radiolabeled Chemicals with a specific activity of 80 Ci/mmol. 384-well streptavidin Flashplates were purchased from PerkinElmer.
Peptide representative of human histone H4 residues 36-50 was synthesized with an N-terminal linker-affinity tag motif and a C-terminal amide cap by 21st Century Biochemicals.
The amplified gene was subcloned into pFastBacMam (Viva Biotech).
Recombinant baculovirus were generated according to Bac-to-Bac kit instructions (Life Technologies). […] Infections were carried out at 37° C. for 48 hours, harvested by centrifugation, and stored at −80° C. for purification.
Column was washed with 20 mM imidazole in the same buffer and Flag-PRMT6-His was eluted with 150 mM imidazole. Pooled fractions were dialysed against buffer Ni-A and further purified by anti-flag M2 affinity chromatography. Flag-PRMT6-His was eluted with 200 ug/ml FLAG peptide in the same buffer. Pooled fractions were dialysed in 20 mM Tris, 150 mM NaCl, 10% glycerol and 5 mM β-mercaptoethanol, pH 7.8.
General Procedure for PRMT6 Enzyme Assays on Peptide Substrates.
(§2) The assays were all performed in a buffer consisting of 20 mM Bicine (pH=7.6), 1 mM TCEP, 0.005% BSG, and 0.002% Tween 20, prepared on the day of use. […] DMSO (1 ul) was added to Columns 11, 12, 23, 24, rows A-H for the maximum signal control and 1 ul of SAH, a known product and inhibitor of PRMT6, was added to columns 11, 12, 23, 24, rows I-P for the minimum signal control. A cocktail (40 ul) containing the PRMT6 enzyme was added by Multidrop Combi (Thermo-Fisher). The compounds were allowed to incubate with PRMT6 for 30 min at room temperature, then a cocktail (10 ul) containing SAM and peptide was added to initiate the reaction (final volume=51 ul). […] The assays were stopped by the addition of non-radiolabeled SAM (10 ul) to a final concentration of 400 uM, which dilutes the ^3H-SAM to a level where its incorporation into the peptide substrate is no longer detectable. 50 ul of the reaction in the 384-well polypropylene plate was then transferred to a 384-well Flashplate and the biotinylated peptides were allowed to bind to the streptavidin surface for at least 1 hour before being washed once with 0.1% Tween20 in a Biotek ELx405 plate washer. The plates were then read in a PerkinElmer TopCount plate reader to measure the quantity of ^3H-labeled peptide bound to the Flashplate surface, measured as disintegrations per minute (dpm) or alternatively, referred to as counts per minute (cpm).
(§3) Where dpm=disintegrations per minute, cmpd=signal in assay well, and min and max are the respective minimum and maximum signal controls.
(§4) Where top and bottom are the normally allowed to float, but may be fixed at 100 or 0 respectively in a 3-parameter fit. The Hill Coefficient normally allowed to float but may also be fixed at 1 in a 3-parameter fit. Y is the % inhibition and X is the compound concentration.

[3] = target: human PRMT8 (Homo sapiens, UniProt Q9NR22); assay: PRMT8 Biochemical Assay; conditions: peptide substrate, 3H-SAM Flashplate assay
[4] = target: T2, human PRMT1 (Homo sapiens, UniProt Q99873); assay: PRMT1 Biochemical Assay; conditions: peptide substrate, 3H-SAM Flashplate assay
T2 construct: GST-tagged PRMT1; made in house; host or cells: High Five insect cells (baculovirus, pFastBac1)
Description: as §1, with “(BSG),” for “(BSG), sodium butyrate”
Recombinant baculovirus were generated according to Bac-to-Bac kit instructions (Life Technologies). […] Infections were carried out at 27° C. for 48 hours, harvested by centrifugation, and stored at −80° C. for purification.
GST-tagged PRMT1 was eluted with 50 mM Tris, 2 mM glutathione, pH 7.8, dialysed in buffer A and concentrated to 1 mg/mL.
General Procedure for PRMT1 Enzyme Assays on Peptide Substrates.
as §2, with “PRMT1,” for “PRMT6,”, “PRMT1” for “PRMT6”, “300” for “400”
as §3, §4

[5] = peptide substrate, 3H-SAM Flashplate assay, read-out: PRMT6 IC50

T2 sequence (Q99873 with tags, fused parts or gaps): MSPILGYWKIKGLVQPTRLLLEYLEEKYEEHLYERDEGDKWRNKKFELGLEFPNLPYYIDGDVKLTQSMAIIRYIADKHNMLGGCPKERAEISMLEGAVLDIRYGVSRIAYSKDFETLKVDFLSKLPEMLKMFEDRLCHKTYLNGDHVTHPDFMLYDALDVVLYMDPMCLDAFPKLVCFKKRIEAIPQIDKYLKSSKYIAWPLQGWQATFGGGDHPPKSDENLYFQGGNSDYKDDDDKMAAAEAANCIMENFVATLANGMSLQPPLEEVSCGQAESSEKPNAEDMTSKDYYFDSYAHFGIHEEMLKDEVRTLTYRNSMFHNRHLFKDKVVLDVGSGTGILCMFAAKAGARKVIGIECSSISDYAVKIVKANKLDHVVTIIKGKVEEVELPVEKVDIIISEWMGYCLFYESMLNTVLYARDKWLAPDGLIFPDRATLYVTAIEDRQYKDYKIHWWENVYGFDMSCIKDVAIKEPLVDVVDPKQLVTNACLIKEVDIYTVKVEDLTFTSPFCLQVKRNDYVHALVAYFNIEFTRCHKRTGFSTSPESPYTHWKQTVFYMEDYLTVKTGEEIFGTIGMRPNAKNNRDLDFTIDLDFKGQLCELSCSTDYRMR
human PRMT8, sequence (Q9NR22 whole entry): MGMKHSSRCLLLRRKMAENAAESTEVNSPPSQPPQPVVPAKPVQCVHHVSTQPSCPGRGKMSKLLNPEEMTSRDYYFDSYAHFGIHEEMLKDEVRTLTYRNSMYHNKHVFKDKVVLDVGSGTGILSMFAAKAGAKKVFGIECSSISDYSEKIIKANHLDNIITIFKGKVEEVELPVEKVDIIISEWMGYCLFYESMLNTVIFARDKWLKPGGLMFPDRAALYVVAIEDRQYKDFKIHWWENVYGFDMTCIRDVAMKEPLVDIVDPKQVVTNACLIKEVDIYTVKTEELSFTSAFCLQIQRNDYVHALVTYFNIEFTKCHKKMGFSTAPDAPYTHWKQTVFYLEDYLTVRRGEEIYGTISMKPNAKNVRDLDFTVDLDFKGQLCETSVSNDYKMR
T1 sequence (Q96LA8 with tags, fused parts or gaps): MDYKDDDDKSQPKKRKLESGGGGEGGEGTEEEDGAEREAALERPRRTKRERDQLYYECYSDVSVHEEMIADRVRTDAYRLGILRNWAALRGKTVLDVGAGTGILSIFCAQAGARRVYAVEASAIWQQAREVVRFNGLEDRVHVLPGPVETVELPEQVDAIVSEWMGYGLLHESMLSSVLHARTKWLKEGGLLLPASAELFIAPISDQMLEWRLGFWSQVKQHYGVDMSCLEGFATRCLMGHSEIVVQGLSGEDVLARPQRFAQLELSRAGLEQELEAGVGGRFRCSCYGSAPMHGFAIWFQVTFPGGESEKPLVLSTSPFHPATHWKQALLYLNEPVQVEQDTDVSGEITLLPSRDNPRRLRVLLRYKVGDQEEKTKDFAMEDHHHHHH

Structure (SMILES) | IC50 ([3]; PRMT8 IC50 (uM)) | IC50 ([4]; read-out: PRMT1 IC50) | IC50 [2, 5] | ICW EC30 [1] | also measured
CNCCN(C)Cc1c[nH]nc1-c1cc(Cl)c(OCC(C)C)c(Cl)c1 [Compound 1] | 0.0173 µM | 0.00351 µM | – | 380 nM | IC50 ([2]; PRMT6 IC50 (uM)): 0.0104 µM
CNCCN(C)Cc1c[nH]nc1-c1ccc(CC(C)C)c(C(F)(F)F)c1 [Compound 50] | 0.0245 µM | – | 0.0677 µM | – | IC50 ([4]; PRMT1 IC50 (uM)): 0.0105 µM
CNCCN(C)Cc1c[nH]nc1-c1cc(OC(CO)CC(C)C)cc(C(F)(F)F)c1 (centres unmarked) [Compound 73] | – | – | – | 2102 nM | IC50 ([2]; read-out: PRMT6 IC50): 1.9 µM; IC50 ([3]; read-out: PRMT8 IC50): 0.0438 µM
CNCCN(C)Cc1c[nH]nc1-c1cc(F)c(OC(CO)CO)c(C(F)(F)F)c1 [Compound 107] | 0.085 µM | 0.0355 µM | 0.066 µM | – | –
CNCCN(C)Cc1ccnn1[C@H]1CC[C@@H](COC)CC1 [Compound 110] | – | 0.0364 µM | 0.143 µM | 1204 nM | –
CNCCN(C)Cc1c[nH]nc1-c1ccc(OCCOc2ccnnc2)cc1 [Compound 112] | – | 0.0373 µM | 0.0278 µM | 3994 nM | –
CCN(Cc1ccncc1)c1ccc(-c2n[nH]cc2CN(C)CCNC)cn1 [Compound 113] | 0.243 µM | 0.0374 µM | 0.105 µM | – | –
COCCCOc1cc(-c2n[nH]cc2CN(C)CCN)cc(C(F)(F)F)c1Cl [Compound 115] | 0.563 µM | 0.0391 µM | 1.82 µM | – | –
CNCCN(C)Cc1c[nH]nc1-c1ccc(N(C)CC2CCOCC2)nc1 [Compound 120] | – | 0.0417 µM | 0.272 µM | 4389 nM | –
CNCCN(C)Cc1c[nH]nc1-c1ccc(OC2CC(OCC(C)C)C2)cc1 (centres unmarked) [Compound 131] | – | 0.0492 µM | 0.0182 µM | 14756 nM | –
CNCCN(C)Cc1cn[nH]c1-c1ccc(OC2CC(OCCC3CCOCC3)C2)cc1 (centres unmarked) [Compound 145] | 0.223 µM | 0.119 µM | – | – | IC50 ([2]; PRMT6 IC50 (uM), peptide substrate, 3H-SAM Flashplate assay): 0.0101 µM
CNCCN(C)Cc1c[nH]nc1-c1ccc(OC2CC(OCCC3CCCCC3)C2)cc1 (centres unmarked) [Compound 150] | – | – | – | >20000 nM | –
CNCCN(C)Cc1c[nH]nc1-c1ccc(O[C@H]2C[C@H](OCCC3CCOCC3)C2)cc1 [Compound 155, N1,N2-dimethyl-N1-((3-(4-(3-(2-(tetrahydro-2H-pyran-4-yl)ethoxy)cyclobutoxy)phenyl)-1H-pyrazol-4-yl)methyl)ethane-1,2-diamine bis(2,2,2-trifluoroacetate)] | – | 0.119 µM | 0.0101 µM | – | IC50 ([3]; read-out: PRMT8 IC50): 0.223 µM

More lines, main results first:

IC50 ([3]; PRMT8 IC50 (uM)) | IC50 ([4]; read-out: PRMT1 IC50) | IC50 [2, 5] | Structure (SMILES) | ICW EC30 [1] | also measured
0.0218 µM | 0.00361 µM | 0.012 µM | CNCCN(C)Cc1c[nH]nc1-c1cc(Cl)c(OCC2CCC2)c(Cl)c1 [Compound 2] | 304 nM | –
0.0219 µM | 0.00398 µM | 0.0195 µM | CNCCN(C)Cc1c[nH]nc1-c1cc(F)c(OCC2CC2)c(C(F)(F)F)c1 [Compound 3] | 664 nM | –
0.0122 µM | 0.00458 µM | 0.00685 µM | CNCCN(C)Cc1c[nH]nc1-c1cc(F)c(OCC2CCC2)c(C(F)(F)F)c1 [Compound 5] | 468 nM | –
0.0261 µM | 0.00531 µM | 0.285 µM | CNCCN(C)Cc1c[nH]nc1-c1cc(OCCCC(C)C)cc(C(F)(F)F)c1 [Compound 13] | – | –
0.026 µM | 0.0107 µM | 0.0206 µM | CNCCN(C)Cc1c[nH]nc1-c1ccc(NC(C)c2cccnc2)nc1 (centres unmarked) [Compound 52] | – | –
0.023 µM | 0.0113 µM | 0.0186 µM | CNCCN(C)Cc1c[nH]nc1-c1ccc(OCCOc2ccc(OCCC3CCOCC3)cc2)cc1 [Compound 55] | – | –
0.062 µM | 0.0147 µM | 0.031 µM | CNCCN(C)Cc1c[nH]nc1-c1ccc(NC(C)c2ccncc2)nc1 (centres unmarked) [Compound 67] | – | –
0.0871 µM | 0.0163 µM | 0.254 µM | CNCCN(C)Cc1c[nH]nc1-c1cc(OC2CCCC2)cc(C(F)(F)F)c1 [Compound 76] | – | –
0.0599 µM | 0.03 µM | 0.00465 µM | CNCCN(C)Cc1c[nH]nc1-c1ccc(OC2CC(OCCC3CCCCC3)C2)cc1 (centres unmarked) [Compound 100] | – | –
